# Measured values: patent US9708314B2, “Heterocyclic amide compound” (NISSAN CHEMICAL INDUSTRIES, LTD., priority 2013, dated 2017)
# Legend:
# Format in all cases: in vivo
# [1] = test system: transplanted Oryza sativa; assay: Test Example 1: effect on crop, application before weed generation in submerged conditions; conditions: Application herbicide amount 320 g/ha; Seventeenth Table
# How it was run: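 Submerged pot test: alluvial soil, 4 cm water, seeds sown mixed, 2.5-leaf rice transplanted; emulsion in water applied to surface day of sowing, dose g/ha; greenhouse 25–30° C.; 3 wk; 0–5 rating.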
# [2] = test system: Abutilon theophrasti; assay: Test Example 4: herbicidal effect by application to foliage (diluvial soil, plastic box); conditions: for M (Abutilon theophrasti) herbicidal effect grade: foliage application
# How it was run: (§1)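 Read-out is a 0–5 visual grade of herbicidal ratio (5: ≥90%, almost withered; 0: ≤5%) taken three weeks after treatment. Compound was applied as a diluted emulsion to stem and leaf parts of 14-day greenhouse-grown plants (25° C. to 30° C.) at rates expressed as g/ha.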
# [3] = test system: Alopecurus myosuroides; assay: as above; conditions: for J (Alopecurus myosuroides) herbicidal effect grade: foliage application
# How it was run: as §1
# [4] = test system: Apera spica-venti.; assay: as above; conditions: for L (Apera spica-venti.) herbicidal effect grade: foliage application
# How it was run: as §1
# [5] = test system: Avena fatua; assay: as above; conditions: for I (Avena fatua) herbicidal effect grade: foliage application
# How it was run: as §1
# [6] = test system: Chenopodium album; assay: as above; conditions: for O (Chenopodium album) herbicidal effect grade: foliage application
# How it was run: as §1
# [7] = test system: Digitaria ciliaris; assay: as above; conditions: for F (Digitaria ciliaris) herbicidal effect grade: foliage application
# How it was run: as §1
# [8] = test system: Echinochloa crus-galli var. crus-galli; assay: as above; conditions: for H (Echinochloa crus-galli var. crus-galli) herbicidal effect grade: foliage application
# How it was run: as §1
# [9] = test system: Galium spurium; assay: as above; conditions: for Q (Galium spurium) herbicidal effect grade: foliage application
# How it was run: as §1
# [10] = test system: Lolium multiflorum Lam.; assay: as above; conditions: for K (Lolium multiflorum Lam.) herbicidal effect grade: foliage application
# How it was run: as §1
# [11] = test system: Setaria viridis; assay: as above; conditions: for G (Setaria viridis) herbicidal effect grade: foliage application
# How it was run: as §1
# [12] = test system: Veronica persica; assay: as above
# How it was run: as §1
# [13] = test system: Beta vulgaris ssp. vulgaris; assay: Test Example 4: effect on crop by application to foliage (diluvial soil, plastic box); conditions: for f (Beta vulgaris ssp. vulgaris) effect on crop grade: foliage application
# How it was run: as §1
# [14] = test system: Brassica campestris L.; assay: as above; conditions: for g (Brassica campestris L.) effect on crop grade: foliage application
# How it was run: as §1
# [15] = test system: Glycine max; assay: as above; conditions: for d (Glycine max) effect on crop grade: foliage application
# How it was run: as §1
# [16] = test system: Triticum aestivum; assay: as above; conditions: for e (Triticum aestivum) effect on crop grade: foliage application
# How it was run: as §1
# [17] = test system: Zea mays; assay: as above; conditions: for c (Zea mays) effect on crop grade: foliage application
# How it was run: as §1
# [18] = test system: directly sowed Oryza sativa; assay: as above
# How it was run: as §1
# [19] = test system: Amaranthus retroflexus; assay: Test Example 4: herbicidal effect by application to foliage (diluvial soil, plastic box); conditions: Application herbicide amount 320 g/ha; foliage application
# How it was run: as §1
# [20] = test system: Stellaria media; assay: as above
# How it was run: as §1
# [21] = Application herbicide amount 320 g/ha
# [22] = Application herbicide amount 320 g/ha, effect on crop
# [23] = Application herbicide amount 320 g/ha, foliage application
# [24] = application to foliage, application herbicide amount 320 g/ha
smiles,measurement,setting,value
Cc1nnc(NC(=O)c2ccc(C(F)(F)F)n3c(CC4CC4)nnc23)o1 [1-104],a: transplanted Oryza sativa (effect on crop grade),[1],0 (Herbicidal ratio of 5% or less (almost no effect))
same,M,[2]; [21],4 (Herbicidal ratio of 70% or more and less than 90%)
same,J,[3]; [21],1 (Herbicidal ratio of 5% or more and less than 20%)
same,L,[4]; [21],2 (Herbicidal ratio of 20% or more and less than 40%)
same,I,[5]; [21],4 (Herbicidal ratio of 70% or more and less than 90%)
same,O,[6]; [21],5 (Herbicidal ratio of 90% or more (almost completely withered))
same,F,[7]; [21],5 (Herbicidal ratio of 90% or more (almost completely withered))
same,H,[8]; [21],5 (Herbicidal ratio of 90% or more (almost completely withered))
same,Q,[9]; [21],3 (Herbicidal ratio of 40% or more and less than 70%)
same,K,[10]; [21],1 (Herbicidal ratio of 5% or more and less than 20%)
same,G,[11]; [21],5 (Herbicidal ratio of 90% or more (almost completely withered))
same,R,[12]; [21],4 (Herbicidal ratio of 70% or more and less than 90%)
same,f,[13]; [22],4 (Herbicidal ratio of 70% or more and less than 90%)
same,g,[14]; [22],4 (Herbicidal ratio of 70% or more and less than 90%)
same,c,[15]; [22],3 (Herbicidal ratio of 40% or more and less than 70%)
same,e,[16]; [22],2 (Herbicidal ratio of 20% or more and less than 40%)
same,b,[17]; [22],0 (Herbicidal ratio of 5% or less (almost no effect))
same,d,[18]; [22],4 (Herbicidal ratio of 70% or more and less than 90%)
COCCN(C)c1nnc2c(C(=O)Nc3nnc(C)o3)ccc(C(F)(F)F)n12 [1-129],a: transplanted Oryza sativa (effect on crop grade),[1],1 (Herbicidal ratio of 5% or more and less than 20%)
same,M (Abutilon theophrasti) herbicidal effect grade,[2]; [21],3 (Herbicidal ratio of 40% or more and less than 70%)
same,J (Alopecurus myosuroides) herbicidal effect grade,[3]; [21],1 (Herbicidal ratio of 5% or more and less than 20%)
same,N (Amaranthus retroflexus) herbicidal effect grade,[19],4 (Herbicidal ratio of 70% or more and less than 90%)
same,L (Apera spica-venti.) herbicidal effect grade,[4]; [21],1 (Herbicidal ratio of 5% or more and less than 20%)
same,I (Avena fatua) herbicidal effect grade,[5]; [21],2 (Herbicidal ratio of 20% or more and less than 40%)
same,O (Chenopodium album) herbicidal effect grade,[6]; [21],5 (Herbicidal ratio of 90% or more (almost completely withered))
same,F (Digitaria ciliaris) herbicidal effect grade,[7]; [21],4 (Herbicidal ratio of 70% or more and less than 90%)
same,H (Echinochloa crus-galli var. crus-galli) herbicidal effect grade,[8]; [21],5 (Herbicidal ratio of 90% or more (almost completely withered))
same,Q (Galium spurium) herbicidal effect grade,[9]; [21],0 (Herbicidal ratio of 5% or less (almost no effect))
same,K (Lolium multiflorum Lam.) herbicidal effect grade,[10]; [21],1 (Herbicidal ratio of 5% or more and less than 20%)
same,G (Setaria viridis) herbicidal effect grade,[11]; [21],4 (Herbicidal ratio of 70% or more and less than 90%)
same,P (Stellaria media) herbicidal effect grade,[20]; [23],5 (Herbicidal ratio of 90% or more (almost completely withered))
same,f (Beta vulgaris ssp. vulgaris) effect on crop grade,[13]; [21],5 (Herbicidal ratio of 90% or more (almost completely withered))
same,g (Brassica campestris L.) effect on crop grade,[14]; [21],3 (Herbicidal ratio of 40% or more and less than 70%)
same,d (Glycine max) effect on crop grade,[15]; [21],4 (Herbicidal ratio of 70% or more and less than 90%)
same,e (Triticum aestivum) effect on crop grade,[16]; [21],1 (Herbicidal ratio of 5% or more and less than 20%)
same,c (Zea mays) effect on crop grade,[17]; [21],2 (Herbicidal ratio of 20% or more and less than 40%)
Cc1nnc(NC(=O)c2ccc(C(F)(F)F)n3c(N(C)C(C)C)nnc23)o1 [1-132],a: transplanted Oryza sativa (effect on crop grade),[1],2 (Herbicidal ratio of 20% or more and less than 40%)
same,M (Abutilon theophrasti) herbicidal effect grade,[2]; [21],4 (Herbicidal ratio of 70% or more and less than 90%)
same,J (Alopecurus myosuroides) herbicidal effect grade,[3]; [21],1 (Herbicidal ratio of 5% or more and less than 20%)
same,N (Amaranthus retroflexus) herbicidal effect grade,[19],3 (Herbicidal ratio of 40% or more and less than 70%)
same,L (Apera spica-venti.) herbicidal effect grade,[4]; [21],2 (Herbicidal ratio of 20% or more and less than 40%)
same,I (Avena fatua) herbicidal effect grade,[5]; [21],1 (Herbicidal ratio of 5% or more and less than 20%)
same,O (Chenopodium album) herbicidal effect grade,[6]; [21],5 (Herbicidal ratio of 90% or more (almost completely withered))
same,F (Digitaria ciliaris) herbicidal effect grade,[7]; [21],4 (Herbicidal ratio of 70% or more and less than 90%)
same,H (Echinochloa crus-galli var. crus-galli) herbicidal effect grade,[8]; [21],5 (Herbicidal ratio of 90% or more (almost completely withered))
same,Q (Galium spurium) herbicidal effect grade,[9]; [21],2 (Herbicidal ratio of 20% or more and less than 40%)
same,K (Lolium multiflorum Lam.) herbicidal effect grade,[10]; [21],1 (Herbicidal ratio of 5% or more and less than 20%)
same,G (Setaria viridis) herbicidal effect grade,[11]; [21],3 (Herbicidal ratio of 40% or more and less than 70%)
same,R (Veronica persica) herbicidal effect grade,[12]; [23],4 (Herbicidal ratio of 70% or more and less than 90%)
same,f (Beta vulgaris ssp. vulgaris) effect on crop grade,[13]; [21],5 (Herbicidal ratio of 90% or more (almost completely withered))
same,g (Brassica campestris L.) effect on crop grade,[14]; [21],4 (Herbicidal ratio of 70% or more and less than 90%)
same,d (Glycine max) effect on crop grade,[15]; [21],3 (Herbicidal ratio of 40% or more and less than 70%)
same,e (Triticum aestivum) effect on crop grade,[16]; [21],1 (Herbicidal ratio of 5% or more and less than 20%)
same,c (Zea mays) effect on crop grade,[17]; [21],2 (Herbicidal ratio of 20% or more and less than 40%)
COC1CCC(c2nnc3c(C(=O)Nc4nnc(C)o4)ccc(C(F)(F)F)n23)CC1 (stereo not shown) [1-169],a: transplanted Oryza sativa (effect on crop grade),[1],0 (Herbicidal ratio of 5% or less (almost no effect))
same,M: herbicidal effect on Abutilon theophrasti,[2]; [24],3 (Herbicidal ratio of 40% or more and less than 70%)
same,J: herbicidal effect on Alopecurus myosuroides,[3]; [24],1 (Herbicidal ratio of 5% or more and less than 20%)
same,L: herbicidal effect on Apera spica-venti.,[4]; [24],1 (Herbicidal ratio of 5% or more and less than 20%)
same,I: herbicidal effect on Avena fatua,[5]; [24],1 (Herbicidal ratio of 5% or more and less than 20%)
same,O: herbicidal effect on Chenopodium album,[6]; [24],5 (Herbicidal ratio of 90% or more (almost completely withered))
same,F: herbicidal effect on Digitaria ciliaris,[7]; [24],4 (Herbicidal ratio of 70% or more and less than 90%)
same,H: herbicidal effect on Echinochloa crus-galli var. crus-galli,[8]; [24],5 (Herbicidal ratio of 90% or more (almost completely withered))
same,Q: herbicidal effect on Galium spurium,[9]; [24],1 (Herbicidal ratio of 5% or more and less than 20%)
same,K: herbicidal effect on Lolium multiflorum Lam.,[10]; [24],1 (Herbicidal ratio of 5% or more and less than 20%)
same,G: herbicidal effect on Setaria viridis,[11]; [24],3 (Herbicidal ratio of 40% or more and less than 70%)
same,P: herbicidal effect on Stellaria media,[20]; [24],5 (Herbicidal ratio of 90% or more (almost completely withered))
same,R: herbicidal effect on Veronica persica,[12]; [24],4 (Herbicidal ratio of 70% or more and less than 90%)
same,"f: effect on crop, Beta vulgaris ssp. vulgaris",[13]; [24],5 (Herbicidal ratio of 90% or more (almost completely withered))
same,"g: effect on crop, Brassica campestris L.",[14]; [24],0 (Herbicidal ratio of 5% or less (almost no effect))
same,"d: effect on crop, Glycine max",[15]; [24],5 (Herbicidal ratio of 90% or more (almost completely withered))
same,"e: effect on crop, Triticum aestivum",[16]; [24],1 (Herbicidal ratio of 5% or more and less than 20%)
same,"c: effect on crop, Zea mays",[17]; [24],1 (Herbicidal ratio of 5% or more and less than 20%)
same,"b: effect on crop, directly sowed Oryza sativa",[18]; [24],0 (Herbicidal ratio of 5% or less (almost no effect))
